From ChEMBL document CHEMBL1201862, “PubChem BioAssay data set” (2004)
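Values below derive from 48-hour exposures of cells grown in 96-well plates, with endpoints linearly interpolated between the two concentrations bracketing the appropriate inhibition level. Here, GI50 denotes the concentration required for 50% inhibition of growth.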 Active and inactive are the calls of the source. Rule as the data show it: active = GI50 up to about 1.1 µM and inactive = higher. Where a SMILES comes first, the peptide text is derived from it. [ ]: non-standard residue; d: D form. The star is where a group is joined. ξ: configuration not given here. X4 = COc1ccc(C(N*)c2ccc(OC)cc2)cc1; NMeF = CN[C@@H](Cc1ccccc1)C(=O)O; NMeD = CN[C@@H](CC(=O)O)C(=O)O; NMeV = CN[C@H](C(=O)O)C(C)C; ξNMeV = CNC(C(=O)O)C(C)C; Boc = CC(C)(C)OC(=O)*; ξNMeA = CNC(C)C(=O)O; ξV = CC(C)C(N)C(=O)O

How the values were obtained:
Assay in all cases: inhibition of tumour cell growth, NCI panel, 48 h
[1] = tested on: SN12C
[2] = tested on: SK-MEL-5
[3] = tested on: DU-145
[4] = tested on: HCT-15
[5] = tested on: NCI-H522
[6] = tested on: SR
[7] = tested on: HOP-92
[8] = tested on: NCI-H226
[9] = tested on: K562
[10] = tested on: OVCAR-3
[11] = tested on: ACHN
[12] = tested on: EKVX
[13] = tested on: IGROV-1
[14] = tested on: SK-MEL-28
[15] = tested on: CAKI-1
[16] = tested on: HT-29
[17] = tested on: HCT-116
[18] = tested on: UACC-257
[19] = tested on: RXF 393
[20] = tested on: HCC 2998

| Structure (SMILES) | GI50 [1] | GI50 [2] | GI50 [3] | GI50 [4] [µM] | GI50 [5] | GI50 [6] | GI50 [7] | GI50 [8] | GI50 [9] | GI50 [10] | GI50 [11] | GI50 [12] | GI50 [13] | GI50 [14] | GI50 [15] | GI50 [16] | GI50 [17] | GI50 [18] | GI50 [19] | GI50 [20] |
| --- | --- | --- | --- | --- | --- | --- | --- | --- | --- | --- | --- | --- | --- | --- | --- | --- | --- | --- | --- | --- |
| CC1=NN(C(=O)c2ccccc2O)C(=O)/C1=C/c1ccc([N+](=O)[O-])cc1 | 0.372 µM (active) | 0.239 µM (active) | 0.481 µM (active) | 0.361 | 0.615 µM (active) | 0.473 µM (active) | 0.411 µM (active) | 0.459 µM (active) | 0.0434 µM (active) | 0.172 µM (active) | 0.106 µM (active) | 1.2 µM (inactive) | 0.0635 µM (active) | 31.6 µM (inactive) | 0.455 µM (active) | 5.97 µM (inactive) | 0.116 µM (active) | 1.91 µM (inactive) | < 0.01 µM (active) | 1.85 µM (inactive) |
| O=C1C(c2ccccc2)=C(c2ccccc2)C1(Cl)Cl | 2.87 µM (inactive) | 2.82 µM (inactive) | 11.7 µM (inactive) | 2.07 | 2.12 µM (inactive) | 2.04 µM (inactive) | 2.37 µM (inactive) | 3.07 µM (inactive) | 1.91 µM (inactive) | 2.62 µM (inactive) | 2.64 µM (inactive) | 5.04 µM (inactive) | 3.95 µM (inactive) | 3.78 µM (inactive) | 2.62 µM (inactive) | 3.15 µM (inactive) | 1.5 µM (inactive) | 2.71 µM (inactive) | 1.88 µM (inactive) | 5.19 µM (inactive) |
| CC(C)=CCc1cc2c(cc1O)OC[C@H]1c3cc4c(cc3O[C@@H]21)OCO4 | > 10 µM (inactive) | 20.3 µM (inactive) | 38.8 µM (inactive) | 35.8 | 32.6 µM (inactive) | 33.6 µM (inactive) | 23 µM (inactive) | 23.8 µM (inactive) | 36.7 µM (inactive) | 37.2 µM (inactive) | 42.4 µM (inactive) | 22.2 µM (inactive) | > 100 µM (inactive) | 83.4 µM (inactive) | 25.1 µM (inactive) | > 100 µM (inactive) | 17.1 µM (inactive) | 45.3 µM (inactive) | 21.4 µM (inactive) | > 10 µM (inactive) |
| CCOC(=O)/C(C(N)=O)=C(O)/C(O)=C(\Br)C(=O)c1ccccc1 | 18.5 µM (inactive) | 16.6 µM (inactive) | 19.6 µM (inactive) | 18.2 | 1.72 µM (inactive) | 3.68 µM (inactive) | 19.9 µM (inactive) | 19.5 µM (inactive) | 11.8 µM (inactive) | 20.7 µM (inactive) | 19.1 µM (inactive) | 23.9 µM (inactive) | 15.9 µM (inactive) | 17.9 µM (inactive) | 11.1 µM (inactive) | 25.9 µM (inactive) | 16.4 µM (inactive) | 17.9 µM (inactive) | 15.6 µM (inactive) | 22 µM (inactive) |
| COc1ccc(C(NC(=O)C[C@@H](C(=O)N(C)C(C)C(=O)O)N(C)C(=O)[C@@H]2CCCN2C(=O)[C@H](C(C)C)N(C)C(=O)C(C(C)C)N(C)C(=O)[C@H](Cc2ccccc2)N(C)C(=O)C(NC(=O)OC(C)(C)C)C(C)C)c2ccc(OC)cc2)cc1 (stereo not given in full) (Boc-[ξV][NMeF][ξNMeV][NMeV]P[NMeD](X4)[ξNMeA]-OH) | 25.5 µM (inactive) | 6.52 µM (inactive) | 25.9 µM (inactive) | 21.9 | 11.5 µM (inactive) | 15.6 µM (inactive) | 8.26 µM (inactive) | 7.64 µM (inactive) | 11 µM (inactive) | 13.3 µM (inactive) | 36.9 µM (inactive) | 25.6 µM (inactive) | 8.43 µM (inactive) | 7.62 µM (inactive) | 29.6 µM (inactive) | 16.2 µM (inactive) | 13.1 µM (inactive) | 9.75 µM (inactive) | 7.5 µM (inactive) | 6.76 µM (inactive) |
